Values of other authors, collected in US20090148509A1, “ENCAPSULATION AND DEAGGREGATION OF POLYENE ANTIBIOTICS USING POLY(ETHYLENE GLYCOL)-PHOSPHOLIPID MICELLES” (WISCONSIN ALUMNI RESEARCH FOUNDATION, priority 2002, published 2009).

Tests used:
[1] = surfactant:AmB

| Molecule | critical aggregation concentration of AmB in water | molar ratio required to efficiently deaggregate AmB [1] |
| --- | --- | --- |
| C[C@@H]1[C@H](O)[C@@H](C)/C=C/C=C/C=C/C=C/C=C/C=C/C=C/[C@H](O[C@@H]2O[C@H](C)[C@@H](O)[C@H](N)[C@@H]2O)C[C@@H]2O[C@](O)(C[C@@H](O)C[C@@H](O)[C@H](O)CC[C@@H](O)C[C@@H](O)CC(=O)O[C@H]1C)C[C@H](O)[C@H]2C(=O)O [AmB, Amphotericin B] | about 1.0 μg/ml | – |
| sodium deoxycholate | – | greater than 40 |
